In patent publication US7161016B1, “Cannabimimetic lipid amides as useful medications” (University of Connecticut, priority 1998, dated 2007):
Where two headings read alike, the source gives them in different places.

How the values were obtained:
CB1 cannabinoid receptor = target: T1, CB1 cannabinoid receptor (Rattus norvegicus, UniProt P20272); test: CB1 receptor binding assay ([3H]CP-55,940 displacement), with and without PMSF; conditions: rat forebrain membranes
T1 construct: membranes were prepared from rat forebrain membranes; from tissue; host or cells: rat forebrain membranes
T1 sequence (P20272 whole entry): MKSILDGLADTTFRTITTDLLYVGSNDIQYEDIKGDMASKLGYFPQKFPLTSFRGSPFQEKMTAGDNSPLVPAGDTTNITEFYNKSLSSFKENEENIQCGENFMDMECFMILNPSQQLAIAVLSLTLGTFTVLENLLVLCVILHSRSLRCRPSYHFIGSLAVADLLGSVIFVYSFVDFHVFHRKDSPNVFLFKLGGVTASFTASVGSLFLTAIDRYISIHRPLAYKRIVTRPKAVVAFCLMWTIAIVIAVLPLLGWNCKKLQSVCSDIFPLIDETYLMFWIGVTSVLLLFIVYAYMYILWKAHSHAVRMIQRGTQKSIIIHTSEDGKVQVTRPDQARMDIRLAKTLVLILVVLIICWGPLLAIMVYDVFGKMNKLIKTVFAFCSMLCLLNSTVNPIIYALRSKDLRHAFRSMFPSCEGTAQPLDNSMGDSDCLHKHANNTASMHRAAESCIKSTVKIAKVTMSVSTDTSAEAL
Experimental: It is known that the enzymatic action of anandamide amidase can be moderated or prevented in vitro by the inclusion of phenylmethanesulfonyl fluoride (PMSF). PMSF functions as a nonselective protease inhibitor. Thus the ligand binding determinations for the CB1 receptor were carried out in the presence and absence of PMSF, to obtain both CB1 receptor binding affinity and a relative measure of the analog's metabolic stability. The binding affinities (Ki) are expressed in nanomoles (nM).
For the CB1 receptor binding studies, membranes were prepared from rat forebrain membranes according to the procedure of P. R. Dodd et al, A Rapid Method for Preparing Synaptosomes: Comparison with Alternative Procedures, Brain Res., 107–118 (1981). The binding of the novel analogues to the CB1 cannabinoid receptor was assessed as described in W. A. Devane et al, Determination and Characterization of a Cannabinoid Receptor in a Rat Brain, Mol. Pharmacol., 34, 605–613 (1988) and A. Charalambous et al, 5′-azido Δ^8-THC: A Novel Photoaffinity Label for the Cannabinoid Receptor, J. Med. Chem., 35, 3076–3079 (1992) with the following changes. The above articles are incorporated by reference herein.
Membranes, previously frozen at −80° C., were thawed on ice. To the stirred suspension was added three volumes of 25 mM Tris-HCl buffer, 5 mM MgCl2 and 1 mM EDTA, pH 7.4 (TME) containing 150 μM PMSF (made fresh in 2-propanol as a 100 mM stock). The suspension was incubated at 4° C., and after 15 min a second addition of PMSF stock brought the concentration to 300 μM PMSF; then the mixture was incubated for another 15 min. At the end of the second 15-min incubation, the membranes were pelleted and washed three times with TME to remove un-reacted PMSF.
(§1) The treated membranes Were subsequently used in the binding assay described below. Approximately 30 μg of PMSF-treated membranes were incubated in silanized 96-well microtiter plate with TME containing 0.1% essentially fatty acid-free bovine serum albumin (BSA), 0.8 nM [^3H] […] The samples were filtered using Packard Filtermate 196 and Whatman GF/C filterplates and washed with wash buffer (TME) containing 0.5% BSA. Radioactivity was detected using MicroScint 20 scintillation cocktail added directly to the dried filterplates, and the filterplates were counted using a Packard Instruments Top-Count. Nonspecific binding was assessed using 100 nM CP-55,940. Data collected from three independent experiments performed with duplicate determinations was normalized between 100% and 0% specific binding for [^3H] CP-55,940, determined using buffer and 100 nM CP-55,940. The normalized data was analyzed using a 4-parameter nonlinear logistic equation to yield IC50 values.
The CB1 ligand binding determinations in the absence of PMSF were performed in a similar manner to the above test, except without the use of PMSF.

CB2 receptor = target: T2, CB2 receptor (Mus musculus, UniProt P47936); test: CB2 receptor binding assay ([3H]CP-55,940 displacement), without PMSF; conditions: mouse spleen membranes
T2 construct: membranes were prepared from frozen mouse spleen; from tissue; host or cells: frozen mouse spleen membranes
T2 sequence (P47936 whole entry): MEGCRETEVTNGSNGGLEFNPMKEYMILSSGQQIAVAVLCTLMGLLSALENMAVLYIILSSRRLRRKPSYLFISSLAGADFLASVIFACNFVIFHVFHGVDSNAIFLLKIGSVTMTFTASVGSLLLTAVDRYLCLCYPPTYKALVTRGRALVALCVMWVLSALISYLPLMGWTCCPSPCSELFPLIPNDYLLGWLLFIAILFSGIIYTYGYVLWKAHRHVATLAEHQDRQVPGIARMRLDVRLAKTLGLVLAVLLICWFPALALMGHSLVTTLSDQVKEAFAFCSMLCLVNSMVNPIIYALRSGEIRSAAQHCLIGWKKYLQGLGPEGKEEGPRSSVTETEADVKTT
Experimental: as §1
For the CB2 receptor binding studies, membranes were prepared from frozen mouse spleen essentially according to the procedure of P. R. Dodd et al, A Rapid Method for Preparing Synaptosomes: Comparison with Alternative Procedures, Brain Res., 226, 107–118 (1981). Silanized centrifuge tubes were used throughout to minimize receptor loss due to adsorption. The CB2 binding assay was conducted in the same manner as for the CB1 binding assay except the assays were conducted without PMSF. […] The binding affinities (Ki) are expressed in nanomoles (nM).

[1] = PMSF-treated, read-out: KI (CB1), with PMSF
[2] = without PMSF (anandamide amidase active), read-out: KI (CB1), without PMSF

| Compound | Ki (CB1 cannabinoid receptor; [1]) [nM] | Ki (CB1 cannabinoid receptor; [2]) [nM] | Ki (CB2 receptor) [nM] |
| --- | --- | --- | --- |
| CCCCC/C=C\C/C=C\C/C=C\C/C=C\CCCC(=O)N[C@H](C)CN=[N+]=[N-] (racemic) [Analog 4, (R)-(+−)-Arachidonyl-1′-azido-2′-propylamide] | 12.7 | 25.6 | 1230 |
| CCCCC/C=C\C/C=C\C/C=C\C/C=C\CCCC(=O)N[C@H](C)CF [Analog 1, N-(2-Fluoro-1R-(methylethyl)arachidonylamide)] | 1.18 | 10.1 | 785 |
| CCCCC/C=C\C/C=C\C/C=C\C/C=C\CCCC(=O)N[C@@H](C)CF [Analog 2] | 0.91 | 56.3 | 1340 |
| CCCCCC=CCC=CCC=CCC=CCCCC(=O)NCCCl [Analog 5, N-(2-Chloroethyl)arachidonylamide] | 5.29 | 3400 | 195 |
| CCCCCC=CCC=CCC=CCC=CCCCC(=O)NCCCCl [Analog 6, N-(3-Chloropropyl)arachidonylamide] | 25.6 | 387 | 193 |
| C=CCNC(=O)CCC/C=C\C/C=C\C/C=C\C/C=C\CCCCC [Analog 7, N-Allylarachidonylamide] | 9.91 | 2980 | 226 |
| C#CCNC(=O)CCC/C=C\C/C=C\C/C=C\C/C=C\CCCCC [Analog 8, N-Propargylarachidonylamide] | 10.8 | 4900 | 290 |
| CCCCCC=CCC=CCC=CCC=CCCCC(=O)NCC(F)(F)F [Analog 9, N-(2,2,2-Trifluroethyl) arachidonylamide] | 36.2 | 2380 | 718 |
| CCCCC/C=C\C/C=C\C/C=C\C/C=C\CCCCNC(=O)CCO [Analog 10, N-(3-Hydroxypropionyl)arachidonylamine] | 115 | 134 | 3540 |
| CCCCC/C=C\C/C=C\C/C=C\C/C=C\CCCCNC(=O)COC(C)=O [Analog 11, N-(2-Acetoxyacetyl)arachidonylamine] | 421 | 419 |  |
| CCCCC/C=C\C/C=C\C/C=C\C/C=C\CCCCNC(=O)CO [Analog 12] | 20 | 23 |  |
